pIC50: −log10 of the molar value. Bridge positions count the residues as written; N and C are the ends. Square brackets hold non-standard residues; d marks the D form. Peptide text beside a SMILES is read from it. * marks the point of attachment. ξ: configuration not given here. Phe(4-COOH) = N[C@@H](Cc1ccc(C(=O)O)cc1)C(=O)O; Bip = N[C@@H](Cc1ccc(-c2ccccc2)cc1)C(=O)O; hArg = N=C(N)NCCCC[C@H](N)C(=O)O; hCit = NC(=O)NCCCC[C@H](N)C(=O)O; 4Pal = N[C@@H](Cc1ccncc1)C(=O)O; 3Thi = N[C@@H](Cc1ccsc1)C(=O)O; Cha = N[C@@H](CC1CCCCC1)C(=O)O; aThr = C[C@H](O)[C@H](N)C(=O)O; Thr(3ξ) = CC(O)[C@H](N)C(=O)O; 12Ado = NCCCCCCCCCCCC(=O)O; Carboxymethyl = O=C(O)C*; Orn = NCCC[C@H](N)C(=O)O; Aun = NCCCCCCCCCCC(=O)O; Dab = NCC[C@H](N)C(=O)O; Dap = NC[C@H](N)C(=O)O; AEEA = NCCOCCOCC(=O)O
Target: T1, PD-1/PD-L1 interaction (PE-labeled human PD-L1-Ig binding to Jurkat cell line over-expressing human PD-1) (Homo sapiens, UniProt Q15116)
T1 construct: expressed in transfected cells; host or cells: Jurkat
T1 sequence (Q15116 25-288): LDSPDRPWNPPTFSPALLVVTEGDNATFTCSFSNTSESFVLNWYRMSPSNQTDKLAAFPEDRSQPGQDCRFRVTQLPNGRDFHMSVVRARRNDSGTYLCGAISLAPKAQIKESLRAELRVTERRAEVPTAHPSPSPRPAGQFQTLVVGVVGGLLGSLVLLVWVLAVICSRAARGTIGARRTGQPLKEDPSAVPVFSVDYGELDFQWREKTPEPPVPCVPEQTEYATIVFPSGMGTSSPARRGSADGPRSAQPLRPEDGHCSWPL
Assay: Jurkat-PD-1 Cell Binding High-Content Screening Assay (CBA)
Assay type: cell-based
Conditions: Jurkat cell line over-expressing human PD-1; PE-labeled PD-L1-Ig 20 nM final; read-out: Jurkat hPD1-PDL1 IC50
How it was run: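 Jurkat-hPD-1 cells, DMEM/10% FCS; cpd 2 h 37° C; PE-PD-L1-Ig 20 nM final, 1 h; 4% PFA fix + Hoechst 33342, 3× dPBS wash; high-content imaging read-out.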

Row | Structure (SMILES) | pIC50
1 | CC(C)C[C@H]1NC(=O)[C@H](CCCN)NC(=O)[C@H](C(C)C)NC(=O)[C@H](Cc2ccc(-c3ccccc3)cc2)NC(=O)[C@H](C(C)C)NC(=O)[C@H](Cc2c[nH]c3ccccc23)NC(=O)[C@H](CC(=O)O)NC(=O)[C@H](Cc2ccc(OCC(=O)O)cc2)NC(=O)[C@H](CCCCNC(=N)N)NC(=O)CSC[C@@H](C(=O)NCCOCCOCC(=O)N[C@@H](CCCCN)C(=O)NCCCCCCCCCCC(=O)O)NC(=O)[C@H]([C@H](C)O)NC(=O)[C@H](C(C)C)NC(=O)[C@H](CC2CCCCC2)NC(=O)[C@H](CC(N)=O)NC1=O [Compound 3163] ({CH2CO}-[hArg]Y(Carboxymethyl)DWV[Bip]V[Orn][dL]N[Cha]V[aThr]C[AEEA]K[Aun]-OH; thioether N-14) | 7.65
2 | CC(C)C[C@H]1NC(=O)[C@H](CCCN)NC(=O)[C@H](C(C)C)NC(=O)[C@H](Cc2ccc(-c3ccccc3)cc2)NC(=O)[C@H](C(C)C)NC(=O)[C@H](Cc2c[nH]c3ccccc23)NC(=O)[C@H](CC(=O)O)NC(=O)[C@H](Cc2ccc(OCC(=O)O)cc2)NC(=O)[C@H](CN)NC(=O)CSC[C@@H](C(=O)NCCOCCOCC(=O)N[C@@H](CCCCN)C(=O)NCCCCCCCCCCC(=O)O)NC(=O)[C@H]([C@H](C)O)NC(=O)[C@H](C(C)C)NC(=O)[C@H](CC2CCCCC2)NC(=O)[C@H](CC(N)=O)NC1=O [Compound 3164] ({CH2CO}-[Dap]Y(Carboxymethyl)DWV[Bip]V[Orn][dL]N[Cha]V[aThr]C[AEEA]K[Aun]-OH; thioether N-14) | 7.52
3 | CC(C)C[C@H]1NC(=O)[C@H](CCCN)NC(=O)[C@H](C(C)C)NC(=O)[C@H](Cc2ccc(-c3ccccc3)cc2)NC(=O)[C@H](C(C)C)NC(=O)[C@H](Cc2c[nH]c3ccccc23)NC(=O)[C@H](CC(=O)O)NC(=O)[C@H](Cc2ccc(OCC(=O)O)cc2)NC(=O)[C@H](CCCCNC(=N)N)NC(=O)CSC[C@@H](C(=O)NCCOCCOCC(=O)N[C@@H](CCCCN)C(=O)NCCCCCCCCCCCC(=O)O)NC(=O)[C@H](C(C)O)NC(=O)[C@H](C(C)C)NC(=O)[C@H](CC2CCCCC2)NC(=O)[C@H](CCN)NC1=O (stereo partly drawn) [Compound 3165] ({CH2CO}-[hArg]Y(Carboxymethyl)DWV[Bip]V[Orn][dL][Dab][Cha]V[Thr(3ξ)]C[AEEA]K[12Ado]-OH; thioether N-14) | 7.51
4 | CC(C)C[C@H]1NC(=O)[C@H](CCCCN)NC(=O)[C@H](C(C)C)NC(=O)[C@H](Cc2ccc(-c3ccccc3)cc2)NC(=O)[C@H](C(C)C)NC(=O)[C@H](Cc2c[nH]c3ccccc23)NC(=O)[C@H](CC(=O)O)NC(=O)[C@H](Cc2ccc(OCC(=O)O)cc2)NC(=O)[C@H](Cc2ccsc2)NC(=O)CSC[C@@H](C(=O)NCCOCCOCC(=O)N[C@@H](CCCN)C(=O)NCCCCCCCCCCC(=O)O)NC(=O)[C@H](C(C)O)NC(=O)[C@H](C(C)C)NC(=O)[C@H](CC2CCCCC2)NC(=O)[C@H](CCN)NC1=O (stereo partly drawn) [Compound 3167] ({CH2CO}-[3Thi]Y(Carboxymethyl)DWV[Bip]VK[dL][Dab][Cha]V[Thr(3ξ)]C[AEEA][Orn][Aun]-OH; thioether N-14) | 7.23
5 | CC(C)C[C@H]1NC(=O)[C@H](CCCN)NC(=O)[C@H](C(C)C)NC(=O)[C@H](Cc2ccc(-c3ccccc3)cc2)NC(=O)[C@H](C(C)C)NC(=O)[C@H](Cc2c[nH]c3ccccc23)NC(=O)[C@H](CC(=O)O)NC(=O)[C@H](Cc2ccc(OCC(=O)O)cc2)NC(=O)[C@H](Cc2ccsc2)NC(=O)CSC[C@@H](C(=O)N[C@@H](CCCN)C(=O)NCCOCCOCC(=O)NCCCCCCCCCCCC(=O)O)NC(=O)[C@H](C(C)O)NC(=O)[C@H](C(C)C)NC(=O)[C@H](CC2CCCCC2)NC(=O)[C@H](CCN)NC1=O (stereo partly drawn) [Compound 3168] ({CH2CO}-[3Thi]Y(Carboxymethyl)DWV[Bip]V[Orn][dL][Dab][Cha]V[Thr(3ξ)]C[Orn][AEEA][12Ado]-OH; thioether N-14) | 7.13
6 | CC(C)C[C@H]1NC(=O)[C@H](CCCN)NC(=O)[C@H](C(C)C)NC(=O)[C@H](Cc2ccc(-c3ccccc3)cc2)NC(=O)[C@H](C(C)C)NC(=O)[C@H](Cc2c[nH]c3ccccc23)NC(=O)[C@H](CC(=O)O)NC(=O)[C@H](Cc2ccc(OCC(=O)O)cc2)NC(=O)[C@H](CCCCNC(=N)N)NC(=O)CSC[C@@H](C(=O)NCC(=O)N[C@@H](CCCN)C(=O)NCCCCCCCCCCCC(=O)O)NC(=O)[C@H](CN)NC(=O)[C@H](C(C)C)NC(=O)[C@H](CC2CCCCC2)NC(=O)[C@H](CC(N)=O)NC1=O [Compound 3176] ({CH2CO}-[hArg]Y(Carboxymethyl)DWV[Bip]V[Orn][dL]N[Cha]V[Dap]CG[Orn][12Ado]-OH; thioether N-14) | 7.48
7 | CC(C)C[C@H]1NC(=O)[C@H](CCCN)NC(=O)[C@H](C(C)C)NC(=O)[C@H](Cc2ccc(-c3ccccc3)cc2)NC(=O)[C@H](C(C)C)NC(=O)[C@H](Cc2c[nH]c3ccccc23)NC(=O)[C@H](CC(=O)O)NC(=O)[C@H](Cc2ccc(OCC(=O)O)cc2)NC(=O)[C@H](CCCCNC(=N)N)NC(=O)CSC[C@@H](C(=O)N[C@@H](CCN)C(=O)NCCOCCOCC(=O)N[C@@H](CCCN)C(=O)NCCCCCCCCCCCC(=O)O)NC(=O)[C@H](CO)NC(=O)[C@H](C(C)C)NC(=O)[C@H](CC2CCCCC2)NC(=O)[C@H](CC(N)=O)NC1=O [Compound 3177] ({CH2CO}-[hArg]Y(Carboxymethyl)DWV[Bip]V[Orn][dL]N[Cha]VSC[Dab][AEEA][Orn][12Ado]-OH; thioether N-14) | 7.56

Stronger by pIC50, values ahead:

Row | pIC50 | Structure (SMILES)
8 | 7.68 | CC(C)C[C@H]1NC(=O)[C@H](CCCN)NC(=O)[C@H](C(C)C)NC(=O)[C@H](Cc2ccc(-c3ccccc3)cc2)NC(=O)[C@H](C(C)C)NC(=O)[C@H](Cc2c[nH]c3ccccc23)NC(=O)[C@H](CC(=O)O)NC(=O)[C@H](CCCCNC(N)=O)NC(=O)[C@H](Cc2ccc(OCC(=O)O)cc2)NC(=O)CSC[C@@H](C(=O)NCC(=O)NCCOCCOCC(=O)N[C@@H](CCCN)C(=O)NCCCCCCCCCCCC(=O)O)NC(=O)[C@H](CN)NC(=O)[C@H](C(C)C)NC(=O)[C@H](CC2CCCCC2)NC(=O)[C@H](CCN)NC1=O [Compound 3169] ({CH2CO}-Y(Carboxymethyl)[hCit]DWV[Bip]V[Orn][dL][Dab][Cha]V[Dap]CG[AEEA][Orn][12Ado]-OH; thioether N-14)
9 | 7.76 | CC(C)C[C@H]1NC(=O)[C@H](CCCN)NC(=O)[C@H](C(C)C)NC(=O)[C@H](Cc2ccc(-c3ccccc3)cc2)NC(=O)[C@H](C(C)C)NC(=O)[C@H](Cc2c[nH]c3ccccc23)NC(=O)[C@H](CC(=O)O)NC(=O)[C@H](Cc2ccncc2)NC(=O)[C@H](Cc2ccc(OCC(=O)O)cc2)NC(=O)CSC[C@@H](C(=O)NCC(=O)NCCOCCOCC(=O)N[C@@H](CCCN)C(=O)NCCCCCCCCCCCC(=O)O)NC(=O)[C@H](CN)NC(=O)[C@H](C(C)C)NC(=O)[C@H](CC2CCCCC2)NC(=O)[C@H](CCN)NC1=O [Compound 3170] ({CH2CO}-Y(Carboxymethyl)[4Pal]DWV[Bip]V[Orn][dL][Dab][Cha]V[Dap]CG[AEEA][Orn][12Ado]-OH; thioether N-14)
10 | 8.21 | CC(C)C[C@H]1NC(=O)[C@H](CCCN)NC(=O)[C@H](C(C)C)NC(=O)[C@H](Cc2ccc(-c3ccccc3)cc2)NC(=O)[C@H](C(C)C)NC(=O)[C@H](Cc2c[nH]c3ccccc23)NC(=O)[C@H](CC(=O)O)NC(=O)[C@H](Cc2ccc(C(=O)O)cc2)NC(=O)[C@H](Cc2ccc(OCC(=O)O)cc2)NC(=O)CSC[C@@H](C(=O)NCC(=O)NCCOCCOCC(=O)N[C@@H](CCCN)C(=O)NCCCCCCCCCCCC(=O)O)NC(=O)[C@H](CN)NC(=O)[C@H](C(C)C)NC(=O)[C@H](CC2CCCCC2)NC(=O)[C@H](CCN)NC1=O [Compound 3171] ({CH2CO}-Y(Carboxymethyl)[Phe(4-COOH)]DWV[Bip]V[Orn][dL][Dab][Cha]V[Dap]CG[AEEA][Orn][12Ado]-OH; thioether N-14)
11 | 7.97 | CC(C)C[C@H]1NC(=O)[C@H](CCCN)NC(=O)[C@H](C(C)C)NC(=O)[C@H](Cc2ccc(-c3ccccc3)cc2)NC(=O)[C@H](C(C)C)NC(=O)[C@H](Cc2c[nH]c3ccccc23)NC(=O)[C@H](CC(=O)O)NC(=O)[C@H](Cc2ccc(OCC(=O)O)cc2)NC(=O)[C@H](CCCNC(=N)N)NC(=O)CSC[C@@H](C(=O)NCC(=O)NCCOCCOCC(=O)N[C@@H](CCCN)C(=O)NCCCCCCCCCCCC(=O)O)NC(=O)[C@H](CN)NC(=O)[C@H](C(C)C)NC(=O)[C@H](CC2CCCCC2)NC(=O)[C@H](CCN)NC1=O [Compound 3172] ({CH2CO}-RY(Carboxymethyl)DWV[Bip]V[Orn][dL][Dab][Cha]V[Dap]CG[AEEA][Orn][12Ado]-OH; thioether N-14)
12 | 7.67 | CC(C)C[C@H]1NC(=O)[C@H](CCCN)NC(=O)[C@H](C(C)C)NC(=O)[C@H](Cc2ccc(-c3ccccc3)cc2)NC(=O)[C@H](C(C)C)NC(=O)[C@H](Cc2c[nH]c3ccccc23)NC(=O)[C@H](CC(=O)O)NC(=O)[C@H](Cc2ccc(OCC(=O)O)cc2)NC(=O)[C@H](CCCCNC(=N)N)NC(=O)CSC[C@@H](C(=O)NCC(=O)NCCOCCOCC(=O)N[C@@H](CCCN)C(=O)NCCCCCCCCCCCC(=O)O)NC(=O)[C@H](CN)NC(=O)[C@H](C(C)C)NC(=O)[C@H](CC2CCCCC2)NC(=O)[C@H](CCN)NC1=O [Compound 3173] ({CH2CO}-[hArg]Y(Carboxymethyl)DWV[Bip]V[Orn][dL][Dab][Cha]V[Dap]CG[AEEA][Orn][12Ado]-OH; thioether N-14)
13 | 7.75 | CC(C)C[C@H]1NC(=O)[C@H](CCCN)NC(=O)[C@H](C(C)C)NC(=O)[C@H](Cc2ccc(-c3ccccc3)cc2)NC(=O)[C@H](C(C)C)NC(=O)[C@H](Cc2c[nH]c3ccccc23)NC(=O)[C@H](CC(=O)O)NC(=O)[C@H](Cc2ccc(OCC(=O)O)cc2)NC(=O)[C@H](CCCCNC(=N)N)NC(=O)CSC[C@@H](C(=O)NCC(=O)N[C@@H](CCCN)C(=O)NCCCCCCCCCCCC(=O)O)NC(=O)[C@H](CN)NC(=O)[C@H](C(C)C)NC(=O)[C@H](CC2CCCCC2)NC(=O)[C@H](CCN)NC1=O [Compound 3175] ({CH2CO}-[hArg]Y(Carboxymethyl)DWV[Bip]V[Orn][dL][Dab][Cha]V[Dap]CG[Orn][12Ado]-OH; thioether N-14)

— patent US20260022142A1, “MACROCYCLIC IMMUNOMODULATORS” (Bristol-Myers Squibb Company, priority 2022, published 2026)
